EP0343258B1, “AGENT FOR PROPHYLAXIS AND TREATMENT OF VIRALLY INFECTED DISEASES” (MITSUI TOATSU CHEMICALS, Inc., priority 1987, dated 1989)
Non-standard residues stand in square brackets, D forms with d. Residues, ends and D or L forms follow the SMILES beside them. pGlu = O=C1CC[C@@H](C(=O)O)N1

Legend:
[1] = Toxicity test, repeated subcutaneous administration to mice; assay type: in vivo, ddy male mice
Text: (§1) Thus, the medicament of the present invention is a safe medicament of extremely low toxicity and can be administered for a long period of time.

[2] = Toxicity test, repeated subcutaneous administration to rats; assay type: in vivo, wister rats; details: 30 mg/kg subcutaneously for consecutive 21 days
Text: as §1

REO virus type II = experiment: Jerne plaque assay (antibody-forming cells against SRBC) in REO virus-infected new-born NC mice; assay type: in vivo; details: 10⁵ PFU REO virus; MDP 20 µg/mouse with Freund incomplete adjuvant, given with SRBC 2 weeks after infection; measured 4 days later
Experimental: Two weeks after the infection of 10⁵ PFU REO virus, sheep red blood cells (referred to hereinafter simply as SRBC) was intraperitoneally administered and 4 days after the administration, the number of hemolysis plaques was measured by way of Jerne plaque assay as a production amount of antibody-forming cells against SRBC. The number of hemolysis plaques was 15±2 per 10⁶ spleen cells in a group not infected with REO virus, while that was 2.8±1.6 in an infected group, thus showing a remarkable immunity inhibitory state. In compliance with this, atrophy of thymus and decrease in the number of thymic cortex lymphocytes were observed.
In a group to which muramyl dipeptide was administered in an amount of 20 µg/mouse together with Freund incomplete adjuvant, the number of hemolysis plaques was 11±2.
Next, recovery of the immune function by immunity-enhancing substance was examined, using new-born mice infected with REO virus type II. Two weeks after the infection of the mice with the virus, sheep red blood cells were administered to the mice, and 4 days after the administration, Jerne plaque assay was carried out to measure the number of hemolysis plaques. […]
Mice infected with virus was immunized at the same time with SRBC and an immunostimulant, and 4 days after the immunization, the number of hemolysis plaques was measured by Jerne plaque assay. […]

## C[C@H](NC(=O)[C@@H]1CCC(=O)N1)C(=O)N[C@@H](CCCCN)C(=O)N[C@@H](CO)C(=O)N[C@@H](CCC(N)=O)C(=O)NCC(=O)NCC(=O)N[C@@H](CO)C(=O)N[C@@H](CC(N)=O)C(=O)O [FTS, pGlu-Ala-Lys-Ser-Gln-Gly-Gly-Ser-Asn] ([pGlu]AKSQGGSN-OH)
[1]; 50 mg/kg and 100mg/kg subcutaneously for consecutive 14 days
  toxicity: No toxicity was observed
[1]; 100 mg/kg subcutaneously every day for consecutive 14 days
  abnormal symptom by external check: no abnormal symptom was found
[2]
  abnormal symptom in external behavior observation, biochemical diagnosis of sera and pathological anatomy: no abnormal symptom was found
  toxicity: No toxicity was observed

## CC(=O)N[C@H]1C(O)O[C@H](CO)[C@@H](O)[C@@H]1O[C@H](C)C(=O)N[C@@H](C)C(=O)N[C@H](CCC(=O)O)C(N)=O (some centres unmarked) [MDP, muramyl dipeptide]
REO virus type II
  PFC/10⁶ spleen cells: 11±2 PFC/10⁶ spleen cells
